In patent publication EP0721336B1, “BENZAZOLE COMPOUNDS FOR USE IN THERAPY” (CANCER RESEARCH CAMPAIGN TECHNOLOGY LIMITED, priority 1993, dated 1995):
Like-named read-outs stand apart in the source and are kept apart here. Marks after values point to notes of the source that are not given here.

Tests used:
[1] = test system: NCI (National Cancer Institute, U.S.A.) panel of human tumour cell lines; experiment: NCI tumour cell line panel test; type: cell-based; details: panel contains no breast cancer cell lines
[2] = Lethal dose (LD50) determination; type: in vivo
A431 cells = experiment: In vitro growth assay; type: cell-based; details: range of concentrations 0.1nM-10µM
Method: No effect was observed, for example, on the growth of A431 cells as a result of exposure to CJM 126 over a range of concentrations (0.1nM-10µM).
In carrying out the above in vitro studies, the method used for conducting the cytotoxicity assays was generally substantially as follows: • Cells were maintained in a continuous logarithmic culture in Dulbecco's medium supplemented with 10% fetal calf serum and penicillin (100 IU/ml) and streptomycin (100 µg/ml). The cells were mildly trypsinized for passage and for use in assays. On day zero, 100µl of trypsinized tumour cells (1 x 10^4/ml) were plated in the wells of 96-well flat-bottom microtiter plates. […] On day two 50µl of the highest drug concentration was added to the wells of column 12 and from there serially diluted 3-fold to column 1 by serial transfer of 50µl using an 8-channel micropipette. The final volume of column 1 was adjusted to 100µl. No additions were made to the wells of rows A and B, which served as controls. The plates were further incubated for 5 days at 37°C and 5% CO2 in air. […] The plates were kept at 4°C overnight before reading on an inverted microscope equipped with an automated scanning stage. Fluorescence intensity was measured in arbitrary units by a photomultiplier. […]

[3] = test system: P388R8/22 (multidrug resistant) cells; experiment: In vitro cytotoxicity assay; type: cell-based
Method: (§1) In carrying out the above in vitro studies, the method used for conducting the cytotoxicity assays was generally substantially as follows: • Cells were maintained in a continuous logarithmic culture in Dulbecco's medium supplemented with 10% fetal calf serum and penicillin (100 IU/ml) and streptomycin (100 µg/ml). The cells were mildly trypsinized for passage and for use in assays. On day zero, 100µl of trypsinized tumour cells (1 x 10^4/ml) were plated in the wells of 96-well flat-bottom microtiter plates. […] On day two 50µl of the highest drug concentration was added to the wells of column 12 and from there serially diluted 3-fold to column 1 by serial transfer of 50µl using an 8-channel micropipette. The final volume of column 1 was adjusted to 100µl. No additions were made to the wells of rows A and B, which served as controls. The plates were further incubated for 5 days at 37°C and 5% CO2 in air. Each compound was tested in duplicate. • On day 7 the test was terminated by the addition of 100µl saline containing 0.002% w/v propidium iodide (Sigma), 0.3% drawing ink (Staedtler "Marsmatic 745" - Trade Mark) and 0.5% Triton X-100. The plates were kept at 4°C overnight before reading on an inverted microscope equipped with an automated scanning stage. Fluorescence intensity was measured in arbitrary units by a photomultiplier. […]

P388 cells = experiment: In vitro cytotoxicity assay; type: cell-based; details: Mus musculus
Method: as §1

MCF-7 mammary carcinoma [4] = experiment: In vivo activity against MCF-7 tumour implanted s.c.; details: i.p., 120 mg/kg/day, qd 6, 13, 20
[5] = test system: BO (T61) human mammary carcinomas; experiment: In vivo activity against implanted BO tumour; set-up: species or system NMRI-nu/nu female mice; details: i.p., qd 27,34,41
MCF-7 mammary carcinoma [6] = details: mouse, in vivo, ip, 120 mg/kg
[7] = test system: MCF-7 mammary carcinoma cells; experiment: In vitro cytotoxicity assay (cell growth, propidium iodide fluorescence); type: cell-based, human; details: for IC50: Homo sapiens; for effect on cell growth: later series of experiments
Excerpt: (§2) This is illustrated in Tables 1 and 2 at the end of the present description which show in vitro test results obtained in various sets of experiments for the cytotoxic activity of this compound CJM 126 against a range of human tumour cell lines, expressed in terms of IC50 values (concentration or dosage required to reduce cell growth or proliferation by 50%) calculated from dose-effect curves plotted for cultures of the cells in question.
(§3) In carrying out the above in vitro studies, the method used for conducting the cytotoxicity assays was generally substantially as follows: • Cells were maintained in a continuous logarithmic culture in Dulbecco's medium supplemented with 10% fetal calf serum and penicillin (100 IU/ml) and streptomycin (100 µg/ml). The cells were mildly trypsinized for passage and for use in assays. On day zero, 100µl of trypsinized tumour cells (1 x 10^4/ml) were plated in the wells of 96-well flat-bottom microtiter plates. […] On day two 50µl of the highest drug concentration was added to the wells of column 12 and from there serially diluted 3-fold to column 1 by serial transfer of 50µl using an 8-channel micropipette. The final volume of column 1 was adjusted to 100µl. No additions were made to the wells of rows A and B, which served as controls. The plates were further incubated for 5 days at 37°C and 5% CO2 in air. Each compound was tested in duplicate. • On day 7 the test was terminated by the addition of 100µl saline containing 0.002% w/v propidium iodide (Sigma), 0.3% drawing ink (Staedtler "Marsmatic 745" - Trade Mark) and 0.5% Triton X-100. The plates were kept at 4°C overnight before reading on an inverted microscope equipped with an automated scanning stage. Fluorescence intensity was measured in arbitrary units by a photomultiplier. An HP-87 computer controlled the movement of the stage and also collected and processed the data from the multiplier. • For each compound tested a dose-response curve was obtained and the IC50 value (the drug concentration at 50% inhibition of cell growth) was calculated.

41M ovarian carcinoma = experiment: In vitro cytotoxicity assay; type: cell-based; details: Homo sapiens; 2nd series of experiments
Excerpt: as §2, §3

ZR 75 mammary (ER+) = experiment: In vitro cytotoxicity assay; type: cell-based; details: Homo sapiens, ZR75
Excerpt: as §2, §3

WiDr colon carcinoma = experiment: In vitro cytotoxicity assay; type: cell-based; details: Homo sapiens
Excerpt: as §2, §3

[8] = test system: MDA 231 mammary (EGFR+/erbB3+); experiment: In vitro cytotoxicity assay; type: cell-based; details: Homo sapiens, MDA-MB-231
Excerpt: as §2, §3

MCF 7-T (ER-) = experiment: In vitro cytotoxicity assay; type: cell-based; details: Homo sapiens; 2nd series of experiments
Excerpt: as §2, §3

A204 rhabdomyosarcoma = experiment: In vitro cytotoxicity assay; type: cell-based; details: Homo sapiens
Excerpt: as §2, §3

IGR37 melanoma = experiment: In vitro cytotoxicity assay; type: cell-based; details: Homo sapiens, IGR-37
Excerpt: as §2, §3

CH 1/CisR = experiment: In vitro cytotoxicity assay; type: cell-based; details: Homo sapiens, CH1cisR; 2nd series of experiments
Excerpt: as §2, §3

SKBR3 mammary (ER-) = experiment: In vitro cytotoxicity assay; type: cell-based; details: Homo sapiens, SK-BR-3
Excerpt: as §2, §3

CH 1 ovarian carcinoma = experiment: In vitro cytotoxicity assay; type: cell-based; details: Homo sapiens; 2nd series of experiments
Excerpt: as §2, §3

T47D mammary (ER-) = experiment: In vitro cytotoxicity assay; type: cell-based; details: Homo sapiens, 2nd series of experiments
Excerpt: as §2, §3

HX/62 ovarian carcinoma = experiment: In vitro cytotoxicity assay; type: cell-based; details: Homo sapiens, HX62; 2nd series of experiments
Excerpt: as §2, §3

[9] = 2nd series of experiments, read-out: IC50

Nc1ccc(-c2nc3ccccc3s2)cc1 [CJM 126, 2-(4-aminophenyl)benzothiazole]
toxicity in panel [1]: essentially non-toxic | LD50 ([2]; daily administration over 3 consecutive days): > 31 mg/kg/day | LD50 ([2]; male, DBA/2, mouse, in vivo, ip, single i.p. dose, read-out: LD50): ~125 mg/kg | effect on growth (A431 cells): No effect | IC50 [3]: 52 µM | IC50 (P388 cells): 27 µM | Relative tumour volume (T/C%) (MCF-7 mammary carcinoma [4]; d9): 84% | Relative tumour volume (T/C%) (MCF-7 mammary carcinoma [4]; d13): 47* % | Relative tumour volume (T/C%) (MCF-7 mammary carcinoma [4]; d20): 38* % | Relative tumour volume (T/C%) (MCF-7 mammary carcinoma [4]; d27): 27* % | Relative tumour volume (T/C%) (MCF-7 mammary carcinoma [4]; d35): 27* % | Relative tumour volume (T/C%) (MCF-7 mammary carcinoma [4]; d43): 43* % | BWC (%) (MCF-7 mammary carcinoma [4]; relative to saline treated animals): -13% | BWC ([5]; 1 mg/kg/day): -5 | Relative tumour volume (T/C%) ([5]; 1 mg/kg/day, d33): 173% | Relative tumour volume (T/C%) ([5]; 1 mg/kg/day, d41): 72% | Relative tumour volume (T/C%) ([5]; 1 mg/kg/day, d47): 25* % | Relative tumour volume (T/C%) ([5]; 1 mg/kg/day, d55): 67% | Relative tumour volume (T/C%) ([5]; 1 mg/kg/day, d61): 41* % | BWC ([5]; 10 mg/kg/day): -4 | Relative tumour volume (T/C%) ([5]; 10 mg/kg/day, d33): 107% | Relative tumour volume (T/C%) ([5]; 10 mg/kg/day, d41): 74% | Relative tumour volume (T/C%) ([5]; 10 mg/kg/day, d47): 55% | Relative tumour volume (T/C%) ([5]; 10 mg/kg/day, d55): 70% | Relative tumour volume (T/C%) ([5]; 10 mg/kg/day, d61): 52% | BWC ([5]; 100 mg/kg/day): -7 | Relative tumour volume (T/C%) ([5]; 100 mg/kg/day, d33): 137% | Relative tumour volume (T/C%) ([5]; 100 mg/kg/day, d41): 77% | Relative tumour volume (T/C%) ([5]; 100 mg/kg/day, d47): 87% | Relative tumour volume (T/C%) ([5]; 100 mg/kg/day, d55): 68% | Relative tumour volume (T/C%) ([5]; 100 mg/kg/day, d61): 52% | signs of toxicity (MCF-7 mammary carcinoma [6]): no signs of severe toxicity | IC50 ([7]; MCF7, 1st series of experiments, initial decrease in cell growth, read-out: IC50): ~0.002 µg/mL | IC50 ([7]; MCF7, MCF 7-wt, phase 1, after drug removal, read-out: observed IC50 after drug removal): 2.18 nM | IC50 ([7]; MCF7, MCF 7-wt, read-out: estimated IC50): ~2.9 nM | IC50 ([7]; MCF7, first series of experiments, second decrease at even greater doses, read-out: IC50 of second decrease (biphasic dose response)): ~2 µg/mL | IC50 ([7]; MCF-wt, column A, read-out: MCF-wt A IC50 at sub-micromolar concentrations): 3 nM | inhibition of growth ([7]; MCF 7-wt, 1% FCS, presence of EGF, all concentrations 1nM-10µM): greater than 85% | times more sensitive than other human cell lines tested ([7]; first series of experiments, Table 1): about 3000 times | estimated IC50 ([7]; in the presence of 1% FCS): picomolar range | proliferation of colonies (2nd phase) ([7]; in the presence of 1% FCS, 3, 10, 30µM): no proliferation of colonies | effect on cell growth ([7]; 30nM and 100nM): maximum growth inhibition | effect on cell growth ([7]; exposure to 1µM, 3µM and 10µM): loss of growth arrest | IC50 (41M ovarian carcinoma): 36 µM | IC50 (ZR 75 mammary (ER+); [9]): 28 nM | IC50 (ZR 75 mammary (ER+); ZR 75, read-out: estimated IC50): ~24.7 nM | IC50 (WiDr colon carcinoma; 1st series of experiments): 6.01 µg/mL | IC50 (WiDr colon carcinoma; 2nd series of experiments): 26 µM | IC50 [8, 9]: 17 nM | IC50 ([8]; MDA 231, read-out: estimated IC50): ~17.2 nM | IC50 (MCF 7-T (ER-)): 12.9 µM | IC50 (A204 rhabdomyosarcoma; 1st series of experiments): 5.94 µg/mL | IC50 (A204 rhabdomyosarcoma; 2nd series of experiments): 26 µM | IC50 (IGR37 melanoma; 1st series of experiments): 24 µg/mL | IC50 (IGR37 melanoma; 2nd series of experiments): 106 µM | IC50 (CH 1/CisR): 33 µM | IC50 (SKBR3 mammary (ER-); [9]): 26 nM | IC50 (SKBR3 mammary (ER-); SKBR3, read-out: estimated IC50): ~25.9 nM | IC50 (CH 1 ovarian carcinoma): 22 µM | IC50 (T47D mammary (ER-)): 44.1 µM | IC50 (HX/62 ovarian carcinoma): 120 µM
